Here are results for 32 molecules from patent US10251863B2, “Parasiticidal compositions comprising indole derivatives, methods and uses thereof” (MERIAL, INC., priority 2014, dated 2019).

Some results are limits rather than exact numbers.

One test has as its system liver fluke newly-excysted juveniles (NEJs). Put plainly: fluke motility assay, digital image-based, newly-excysted juveniles (NEJs). In kind it is cell-based, Fasciola hepatica. As to conditions: 18 h, final concentrations 10 μM-1 nM. As to the method: Further testing employed a fluke motility assay. Compounds 332, 336 and 351 were screened for activity against liver fluke newly-excysted juveniles (NEJs) in a digital image-based motility assay, based on measurement of the rate of change in worm length (μm/min) during peristaltic motility. Newly excised worms were immediately placed into a solution of drug in RPMI (final concentrations 10 μM-1 nM), alongside untreated and vehicle controls, and triclabendazole/triclabendazole sulfoxide (i.e., TCBZ/TCBZ-SO) at matching concentrations, for a period of 18 h. Each treatment group consisted of 15-20 NEJs. […] Each data point represents mean length change (μm/min) in an individual worm during a five minute recording period. Horizontal lines represent data set means. ****, p<0.0001; ***, p<0.001; **, p<0.01; *, p<0.05.
Take `FC(F)(F)c1ccc(-c2ccc3[nH]c(C(F)(F)F)cc3c2)c(Cl)c1` [Compound 332, 5-[2-chloro-4-(trifluoromethyl)phenyl]-2-(trifluoromethyl)-1H-indole]: the “inhibition of motility compared with TCBZ and TCBZ-SO” value was “more potent inhibition of motility than either TCBZ”.
As for `FC(F)(F)c1ccc(-c2cc3cc(C(F)(F)F)[nH]c3cc2Cl)c(Cl)c1` [Compound 336, 6-chloro-5-[2-chloro-4-(trifluoromethyl)phenyl]-2-(trifluoromethyl)-1H-indole], the “inhibition of motility compared with TCBZ and TCBZ-SO” value is given as “more potent inhibition of motility than either TCBZ”.
On the same count and under the same terms, then `FC(F)(F)c1cc2cc(Oc3ccccc3Cl)c(Cl)cc2[nH]1` [Compound 351, 6-chloro-5-(2-chlorophenoxy)-2-(trifluoromethyl)-1H-indole], with “more potent inhibition of motility than either TCBZ”.

The same test, now with this note: 18 h, tested 10 μM-1 nM.
As for `CSc1nc2cc(Cl)c(Oc3cccc(Cl)c3Cl)cc2[nH]1` [TCBZ, triclabendazole, reference compound], the “concentration effective on motility (effective only at)” value was 10 µM.
Same read-out and setting: then `C[S+]([O-])c1nc2cc(Oc3cccc(Cl)c3Cl)c(Cl)cc2[nH]1` (centres unmarked) [TCBZ-SO, triclabendazole sulfoxide, reference compound], with 10 µM.

Staying with this test, now noted: 18 h in drug in RPMI, rate of change in worm length (μm/min).
Regarding `FC(F)(F)c1ccc(-c2ccc3[nH]c(C(F)(F)F)cc3c2)c(Cl)c1` [Compound 332, 5-[2-chloro-4-(trifluoromethyl)phenyl]-2-(trifluoromethyl)-1H-indole], the “concentration that completely abolished motility” value worked out at 1 µM.
In the case of `FC(F)(F)c1ccc(-c2cc3cc(C(F)(F)F)[nH]c3cc2Cl)c(Cl)c1` [Compound 336, 6-chloro-5-[2-chloro-4-(trifluoromethyl)phenyl]-2-(trifluoromethyl)-1H-indole], the “concentration that significantly impacted motility” value was determined as 100 nM.
As to `FC(F)(F)c1cc2cc(Oc3ccccc3Cl)c(Cl)cc2[nH]1` [Compound 351, 6-chloro-5-(2-chlorophenoxy)-2-(trifluoromethyl)-1H-indole], the “concentration that completely abolished motility” value stood at 1 µM.

The test system of the next test is adult F. hepatica. Put plainly: in vitro test on adult F. hepatica (viability scale). As to conditions: Fasciola hepatica, 72 h, read-out: Effective in vitro concentration. In kind it is cell-based. As to the method: Representative compounds of formula (I) were tested in vitro against F. hepatica as follows. Adult F. hepatica (fluke) were collected from infected bovine livers obtained from a local abattoir (Basel, Switzerland). The worms were quickly washed with 0.9% (w/v) NaCl and placed in 6 or 12-well plates (Costar). Culture medium in each well contained RPMI 1640 (Gibco) at 37° C., which was supplemented with antibiotics (50 μg/ml streptomycin and 50 IU/ml penicillin; Gibco) and 80 μg/ml of a haemin solution. The haemin solution was prepared as follows: 5 mg haemin was dissolved in 1 ml of 0.1M aqueous solution of NaOH, and 3.95 ml of PBS (pH=7.4) and 0.05 ml of 1M HCl were added to adjust the pH to 7.1-7.4 (Keiser and Morson, 2008). Cultures were kept at 37° C. in an atmosphere of 5% CO2. To monitor the temporal effects of test compounds in vitro, 3 flukes were incubated for 72 h in the presence of 50 or 100 μg/ml of each test compound. At 24, 48, and 72 h, worms were examined using a dissecting microscope. For the adult worms, a viability scale ranging from 3 (normal movements) to 0 (death; no movement observed for two min using a microscope) was used.
Table 1 lists representative compounds of formula (I) of the present invention and their effective in vitro concentrations against F. hepatica. All compounds were tested in vitro on the adult stage of F. hepatica as described above. Each data point refers to at least two independent experiments having at least three worms per concentration.
For the molecule `N#Cc1ccc(-c2cc3cc(C(F)(F)F)[nH]c3cc2Cl)c(Cl)c1` [Compound 355, 3-chloro-4-[6-chloro-2-(trifluoromethyl)-1H-indol-5-yl]benzonitrile], the minimal effective concentration was more than 2.5 µg/mL.

Still in this test, the particulars now being: Fasciola hepatica; adult stage of F. hepatica, incubated up to 72 h, viability scale 3 to 0; at least two independent experiments, at least three worms per concentration; read-out: Effective in vitro concentration.
Turning to `FC(F)(F)c1ccc(-c2ccc3[nH]c(C(F)(F)F)cc3c2)c(Cl)c1` [Compound 332, 5-[2-chloro-4-(trifluoromethyl)phenyl]-2-(trifluoromethyl)-1H-indole], the minimal effective concentration was less than 10 µg/mL.
Turning to `FC(F)(F)c1ccc(-c2ccc3cc(C(F)(F)F)[nH]c3c2)c(Cl)c1` [Compound 334, 6-[2-chloro-4-(trifluoromethyl)phenyl]-2-(trifluoromethyl)-1H-indole], the minimal effective concentration is less than 10 µg/mL.
In the case of `FC(F)(F)c1ccc(-c2cc3cc(C(F)(F)F)[nH]c3cc2Cl)c(Cl)c1` [Compound 336, 6-chloro-5-[2-chloro-4-(trifluoromethyl)phenyl]-2-(trifluoromethyl)-1H-indole], the minimal effective concentration is less than 10 µg/mL.
With `Cc1cc2cc(-c3ccc(C(F)(F)F)cc3Cl)c(Cl)cc2[nH]1` [Compound 337, 6-chloro-5-[2-chloro-4-(trifluoromethyl)phenyl]-2-methyl-1H-indole], the minimal effective concentration is less than 10 µg/mL.
The same measure, in the same setting: then `CCc1cc2cc(-c3ccc(C(F)(F)F)cc3Cl)c(Cl)cc2[nH]1` [Compound 338, 6-chloro-5-[2-chloro-4-(trifluoromethyl)phenyl]-2-ethyl-1H-indole], with less than 10 µg/mL; and `CCCc1cc2cc(-c3ccc(C(F)(F)F)cc3Cl)c(Cl)cc2[nH]1` [Compound 339, 6-chloro-5-[2-chloro-4-(trifluoromethyl)phenyl]-2-propyl-1H-indole], with less than 10 µg/mL.
The same measure, in the same setting: then `FC(F)(F)c1ccc(-c2cc3cc(C(F)(F)C(F)(F)F)[nH]c3cc2Cl)c(Cl)c1` [Compound 340, 6-chloro-5-[2-chloro-4-(trifluoromethyl)phenyl]-2-(pentafluoroethyl)-1H-indole], with less than 10 µg/mL.
Same read-out and setting: then `FC(F)(F)c1ccc(-c2cc3cc(C(F)(F)C(F)(F)C(F)(F)F)[nH]c3cc2Cl)c(Cl)c1` [Compound 341, 6-chloro-5-[2-chloro-4-(trifluoromethyl)phenyl]-2-(heptafluoropropyl)-1H-indole], with more than 10 µg/mL; and `FC(F)(F)c1cc2cc(-c3ccc(Cl)cc3C(F)(F)F)c(Cl)cc2[nH]1` [Compound 342, 6-chloro-5-[4-chloro-2-(trifluoromethyl)phenyl]-2-(trifluoromethyl)-1H-indole], with less than 10 µg/mL.
In the case of `FC(F)(F)c1cc2cc(-c3ccc(Cl)cc3)c(Cl)cc2[nH]1` [Compound 343, 6-chloro-5-(4-chlorophenyl)-2-(trifluoromethyl)-1H-indole], the minimal effective concentration is less than 10 µg/mL.
Same read-out and setting: then `Fc1ccc(-c2cc3cc(C(F)(F)F)[nH]c3cc2Cl)cc1` [Compound 344, 6-chloro-5-(4-fluorophenyl)-2-(trifluoromethyl)-1H-indole], with less than 10 µg/mL; and `FC(F)(F)c1ccc(-c2cc3cc(C(F)(F)F)[nH]c3cc2Cl)cc1` [Compound 345, 6-chloro-2-(trifluoromethyl)-5-[4-(trifluoromethyl)phenyl]-1H-indole], with less than 10 µg/mL.
`FC(F)(F)c1cc2cc(-c3ccccc3Cl)c(Cl)cc2[nH]1` [Compound 346, 6-chloro-5-(2-chlorophenyl)-2-(trifluoromethyl)-1H-indole]: the minimal effective concentration is less than 10 µg/mL.
The same measure, in the same setting: then `FC(F)(F)c1cc2cc(-c3cccc(Cl)c3)c(Cl)cc2[nH]1` [Compound 347, 6-chloro-5-(3-chlorophenyl)-2-(trifluoromethyl)-1H-indole], with not above 10 µg/mL; and `FC(F)(F)c1cc2cc(-c3ccc(Cl)c(Cl)c3)c(Cl)cc2[nH]1` [Compound 348, 6-chloro-5-(3,4-dichlorophenyl)-2-(trifluoromethyl)-1H-indole], with less than 10 µg/mL; and `FC(F)(F)c1cc2cc(-c3ccncc3)c(Cl)cc2[nH]1` [Compound 349, 6-chloro-5-(pyridin-4-yl)-2-(trifluoromethyl)-1H-indole], with not above 10 µg/mL.
Same read-out and setting: then `FC(F)(F)c1cc2cc(Oc3ccc(Cl)cc3)c(Cl)cc2[nH]1` [Compound 350, 6-chloro-5-(4-chlorophenoxy)-2-(trifluoromethyl)-1H-indole], with not above 10 µg/mL; and `FC(F)(F)c1cc2cc(Oc3ccccc3Cl)c(Cl)cc2[nH]1` [Compound 351, 6-chloro-5-(2-chlorophenoxy)-2-(trifluoromethyl)-1H-indole], with less than 10 µg/mL.
Still for that read-out and setting: then `FC(F)(F)c1ccc(Oc2cc3cc(C(F)(F)F)[nH]c3cc2Cl)cc1` [Compound 352, 6-chloro-2-(trifluoromethyl)-5-[4-(trifluoromethyl)phenoxy]-1H-indole], with more than 10 µg/mL; and `Cl.FC(F)(F)c1cc2cc(-c3ccncc3)c(Cl)cc2[nH]1` [Compound 354, 6-chloro-5-(pyridin-4-yl)-2-(trifluoromethyl)-1H-indole hydrochloride], with more than 2.5 µg/mL; and `Fc1ccc(-c2cc3cc(C(F)(F)F)[nH]c3cc2Cl)c(Cl)c1` [Compound 356, 6-chloro-5-(2-chloro-4-fluorophenyl)-2-(trifluoromethyl)-1H-indole], with less than 10 µg/mL.
On to `FC(F)(F)c1cc2cc(-c3ccc(Cl)cc3Cl)c(Cl)cc2[nH]1` [Compound 357, 6-Chloro-5-(2,4-dichlorophenyl)-2-(trifluoromethyl)-1H-indole], for which the minimal effective concentration was less than 10 µg/mL.
Still for that read-out and setting: then `O=C(O)c1ccccc1-c1cc2cc(C(F)(F)F)[nH]c2cc1Cl` [Compound 358, 2-[6-Chloro-2-(trifluoromethyl)-1H-indol-5-yl]benzoic acid], with more than 2.5 µg/mL; and `N#Cc1ccccc1-c1cc2cc(C(F)(F)F)[nH]c2cc1Cl` [Compound 359, 2-[6-Chloro-2-(trifluoromethyl)-1H-indol-5-yl]benzonitrile], with more than 2.5 µg/mL; and `CN(C)Cc1ccccc1-c1cc2cc(C(F)(F)F)[nH]c2cc1Cl` [Compound 360, ([2-[6-Chloro-2-(trifluoromethyl)-1H-indol-5-yl]phenyl]methyl)dimethylamine], with more than 2.5 µg/mL.
In the case of `CN(C)Cc1ccccc1-c1cc2cc(C(F)(F)F)[nH]c2cc1Cl.Cl` [Compound 360-0A, ([2-[6-Chloro-2-(trifluoromethyl)-1H-indol-5-yl]phenyl]methyl)dimethylamine hydrochloride], the minimal effective concentration is more than 2.5 µg/mL.
Same read-out and setting: then `FC(F)(F)c1cc2cc(-c3ccncc3Cl)c(Cl)cc2[nH]1` [Compound 361, 6-chloro-5-(3-chloropyridin-4-yl)-2-(trifluoromethyl)-1H-indole], with less than 10 µg/mL.
Same read-out and setting: then `Cl.FC(F)(F)c1cc2cc(-c3ccncc3Cl)c(Cl)cc2[nH]1` [Compound 361-0A, 6-chloro-5-(3-chloropyridin-4-yl)-2-(trifluoromethyl)-1H-indole hydrochloride], with less than 10 µg/mL; and `Cl.FC(F)(F)c1cc2cc(Oc3ccncc3)c(Cl)cc2[nH]1` [Compound 362-0A, 6-chloro-5-(pyridin-4-yloxy)-2-(trifluoromethyl)-1H-indole hydrochloride], with more than 2.5 µg/mL.
